Where two headings read alike, the source gives them in different places.
Assays:
[1] = ethylene glycol/heptane, cited from earlier work
[2] = Partition coefficient Peh in ethylene glycol/heptane (permeability, log Peh); format: physicochemical; details: UPLC peak area at 280 nm
Text: (§1) We next examined the effect of our linkers on the biopharmaceutical properties of setmelanotide. The capacity of setmelanotide (SMT) to regulate appetite depends on its ability to penetrate the blood–brain barrier and to activate melanocortin-4 (MC4) receptors in the brain.[79],[80] […] To assess cell permeability, we measured the partition coefficient Peh of our carbocyclic peptides in a mixture of ethylene glycol and heptane.[81]−[84] […] Thus, log Peh values are a good approximation of in vivo permeabilities. […] Finally, we determined the stability of our carbocyclic peptides to aqueous hydrolysis and to reductive cleavage by glutathione (GSH), an approximate measure of their plasma stability.[85] GSH in the cytoplasm can reduce disulfide bonds to dicysteine peptides and can also cleave disulfide bonds through a disulfide exchange reaction.[18]−[21] […] All measurements were compared to setmelanotide (SMT).
(§2) (1 picture or pasted object on this page, not shown here)

[3] = Hydrolytic stability at pH 8.5, 50 °C, LC-MS analysis; format: physicochemical; details: 16 h
Text: as §1, §2

[4] = Stability to reductive cleavage / disulfide exchange by glutathione (GSH); format: in vitro ADME; details: pH 7.4, 37 °C
Text: We next examined the effect of our linkers on the biopharmaceutical properties of setmelanotide. The capacity of setmelanotide (SMT) to regulate appetite depends on its ability to penetrate the blood–brain barrier and to activate melanocortin-4 (MC4) receptors in the brain.[79],[80] Replacing the −SS– bond of SMT with more lipophilic −CC– linkages could improve the CNS permeability of SMT and could also enhance its proteolytic stability. […] For aqueous solubility, we measured solvation in deionized water (pH 6 at 25 °C). […] To assess cell permeability, we measured the partition coefficient Peh of our carbocyclic peptides in a mixture of ethylene glycol and heptane.[81]−[84] […] Thus, log Peh values are a good approximation of in vivo permeabilities. […]. Thus, many of our carbocyclic analogs should have improved (up to 2.6-fold) blood–brain penetrance in vivo. Finally, we determined the stability of our carbocyclic peptides to aqueous hydrolysis and to reductive cleavage by glutathione (GSH), an approximate measure of their plasma stability.[85] GSH in the cytoplasm can reduce disulfide bonds to dicysteine peptides and can also cleave disulfide bonds through a disulfide exchange reaction.[18]−[21] […] The products were analyzed by LC-MS. […]

[5] = common small molecule CNS drugs

c1cc(CN2CCCCC2)cc(OCCCNc2nc3ccccc3s2)c1 [zolantidine]
log Peh [1, 5]: −1.47

setmelanotide [SMT]
log Peh [2]: −1.16
hydrolysis outcome (in words) [3]: loss of a single sulfur atom
mixed disulfide formed (disulfide exchange) ([4]; 1 equiv. GSH, after 24 h): 2%
mixed disulfide formed (disulfide exchange) ([4]; 10 equiv. GSH): 17%

NC(=O)c1ccccc1 [benzamide]
log Peh ([1]; reference solutes quoted 'for reference'): −3.69

Clc1cccc(Cl)c1N=C1NCCN1 [clonidine]
log Peh [1, 5]: −1.80

Cc1cc(=O)n(-c2ccccc2)n1C [antipyrine]
log Peh [1, 5]: −2.28
